Assay results: patent US9873702B2, “Heterocyclic compounds as biogenic amine transport modulators” (Southern Research Institute, priority 2014, dated 2018)
“Also recorded” adds a separate entry of the source. Where two headings read alike, the source gives them in different places.

What was measured:
[1] = biological target: dopamine transporter (DAT) (Rattus norvegicus, UniProt P23977); assay: Dopamine reuptake ([^3H]dopamine uptake) inhibition in rat brain synaptosomes; settings: for efficacy of [^3H]DA (DAT) uptake inhibition, in words: partial versus full inhibition
[2] = DA Uptake EC50 (nM ± SD), rat caudate synaptosomes, 5 nM [^3H]dopamine, 15 min, 25° C., three experiments pooled
[3] = read-out: DA Uptake Emax (% I ± SD)
[4] = One-Site IC50 (nM), [^3H]DA uptake dose-response curve fit to one-component equation
[5] = Two-Site IC50-1 (nM), [^3H]DA uptake dose-response curve fit to two-component equation, component 1
[6] = Two-Site IC50-2 (nM), [^3H]DA uptake dose-response curve fit to two-component equation, component 2
[7] = read-out: Two-Site Emax-1 (% I)
[8] = read-out: Two-Site Emax-2 (% I)

dopamine transporter (DAT), sequence (P23977 whole entry): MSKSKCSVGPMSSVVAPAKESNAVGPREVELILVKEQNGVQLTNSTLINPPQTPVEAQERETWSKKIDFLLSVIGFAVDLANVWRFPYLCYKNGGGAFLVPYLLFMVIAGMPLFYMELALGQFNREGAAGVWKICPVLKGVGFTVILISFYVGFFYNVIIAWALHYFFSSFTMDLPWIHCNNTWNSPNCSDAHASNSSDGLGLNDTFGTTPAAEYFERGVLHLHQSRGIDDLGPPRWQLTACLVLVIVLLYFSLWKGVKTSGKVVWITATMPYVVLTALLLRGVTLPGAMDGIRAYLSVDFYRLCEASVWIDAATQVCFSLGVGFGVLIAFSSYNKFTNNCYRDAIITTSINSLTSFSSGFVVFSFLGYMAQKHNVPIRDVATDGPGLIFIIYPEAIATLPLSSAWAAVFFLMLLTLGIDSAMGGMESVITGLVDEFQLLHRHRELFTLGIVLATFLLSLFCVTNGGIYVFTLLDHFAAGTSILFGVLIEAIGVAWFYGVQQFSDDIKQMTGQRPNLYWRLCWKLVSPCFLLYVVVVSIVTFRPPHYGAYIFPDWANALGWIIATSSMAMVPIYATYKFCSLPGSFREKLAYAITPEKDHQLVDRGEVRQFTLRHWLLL

Structure (SMILES)	IC50 [1, 2]	Emax [1, 3]	further results
Cc1c(-c2nc(NCC(c3ccccc3)c3ccccc3)c3ccccc3n2)ccc2nccn12 [compound 195, N N-(2,2-Diphenylethyl)-2-(5-Methylimidazo[1,2-A]Pyridin-6-yl)Quinazolin-4-Amine]	34 ± 6 nM	74 ± 2%	
Nc1ncc(-c2nc(NCC(c3ccccc3)c3ccccn3)c3ccccc3n2)cn1 (centres unmarked) [compound 95, 2-(2-Aminopyrimidin-5-yl)-N-(2-Phenyl-2-(Pyridin-2-yl)Ethyl)Quinazolin-4-Amine]	385 ± 89 nM	72 ± 4%	
Cc1ccc(-c2nc(NCC(c3ccccc3)c3ccccc3)c3ccccc3n2)c2nccn12 [compound 197, N-(2,2-Diphenylethyl)-2-(5-Methylimidazo[1,2-A]pyridin-8-yl)Quinazolin-4-Amine]	208 ± 34 nM	92 ± 3%	
CC(C)(C)OC(=O)n1cc(-c2nc(NCC(c3ccccc3)c3ccccc3)c3ccccc3n2)c2ccccc21 [compound 72, Tert-Butyl 3-(4-((2,2-Diphenylethyl)Amino)Quinazolin-2-yl)-1H-Indole-1-Carboxylate]			melting point: 90 °C
c1ccc(C(CNc2nc(-c3ccc4c(c3)CCN4)nc3ccccc23)c2ccccc2)cc1 [compound 84, N-(2,2-Diphenylethyl)-2-(Indolin-5-yl)Quinazolin-4-Amine]		75 ± 3%	IC50 [1, 4]: 18 ± 4 nM; IC50 [1, 5]: 1.8e+06 nM; IC50 [1, 6]: 1.8e+06 nM; efficacy of [^3H]DA (DAT) uptake inhibition, in words [1]: partially inhibit; also recorded: partial inhibitors; Emax ([1]; read-out: One-Site Emax (% I)): 75 ± 3%; Emax [1, 7]: 37%; Emax [1, 8]: 37%
CN1CCN(C(CNc2nc(-c3cnc4nccn4c3)nc3ccccc23)c2ccccc2)CC1 (centres unmarked) [compound 129, 2-(Imidazo[1,2-A]Pyrimidin-6-yl)-N-(2-(4Methylpiperazin-1-yl)-2-Phenylethyl)Quinazolin-4-Amine]	49 ± 9 nM	71 ± 2%	
c1ccc(C(CNc2nc(-c3c[nH]c4ccccc34)nc3ccccc23)c2ccccc2)cc1 [compound 82, N-(2,2-Diphenylethyl)-2-(1H-Indol-3-yl)Quinazolin-4-Amine]	239 ± 84 nM	93 ± 7%	
CN1CCN(C(CNc2nc(-c3ccc4nccn4c3)nc3ccccc23)c2ccccc2)CC1 (centres unmarked) [compound 126, 2-(Imidazo[1,2-A]Pyridin-6-yl)-N-(2-(4-Methylpiperazin-1-yl)-2-Phenylethyl)Quinazolin-4-Amine]			melting point: 225 to 227 °C
CN(C)c1ccc(-c2nc(NCC(c3ccccc3)N3CCOCC3)c3ccccc3n2)cc1 (centres unmarked) [SRI-30835]			IC50 [1, 4]: 15 ± 7 nM; IC50 [1, 5]: 6 ± 0.9 nM; IC50 [1, 6]: 4000 ± 1330 nM; efficacy of [^3H]DA (DAT) uptake inhibition, in words [1]: partially inhibit; Emax ([1]; read-out: One-Site Emax (% I)): 75 ± 5%; Emax [1, 7]: 57 ± 2%; Emax [1, 8]: 42 ± 4%
Cc1cc2nccn2cc1-c1nc(NCC(c2ccccc2)C2CCCC2)c2ccccc2n1 (centres unmarked) [compound 194, N-(2-Cyclopentyl-2-Phenylethyl)-2-(7-Methylimidazo[1,2-A]pyridin-6-yl)Quinazolin-4-Amine]	1.6 ± 0.3 nM	74 ± 2%	
c1ccc(C(CNc2nc(-c3cnc4ccnn4c3)nc3ccccc23)c2ccccc2)cc1 [compound 199, N-(2,2-Diphenylethyl)-2-(Pyrazolo[1,5-a]Pyrimidin-6-yl)Quinazolin-4-Amine]	9.1 ± 2.1 nM	73 ± 3%	
c1ccc(C(CNc2nc(-c3ccc4nccn4c3)nc3ccccc23)c2ccc[nH]2)nc1 (centres unmarked) [compound 159, 2-(Imidazo[1,2-A]pyridin-6-yl)-N-(2-(Pyridin-2-yl)-2-(1H-Pyrrol-2-yl)Ethyl)Quinazolin-4-Amine]			melting point: 235 to 237 °C
Cc1cc2nccn2cc1-c1nc(NCC(c2ccccc2)N(C)C)c2ccccc2n1 (centres unmarked) [compound 196, N1,N1-Dimethyl-N2-(2-(7-Methylimidazo[1,2-A]Pyridin-6-yl)Quinazolin-4-yl)-1-Phenylethane-1,2-Diamine]	14 ± 5 nM	77 ± 4%	
c1ccc(C(CNc2nc(-c3ccc4nnnn4c3)nc3ccccc23)c2ccccc2)cc1 [compound 108, N-(2,2-Diphenylethyl)-2-(Tetrazolo[1,5-A]Pyridin-6-yl)Quinazolin-4-Amine]	229 ± 54 nM	47 ± 2%	
CC(C)(C)OC(=O)N1CCc2cc(-c3nc(NCC(c4ccccc4)c4ccccc4)c4ccccc4n3)ccc21 [compound 74, Tert-Butyl 5-(4-((2,2-Diphenylethyl)Amino)Quinazolin-2-yl)Indoline-1-Carboxylate]			melting point: 127 °C
FC(F)(F)c1cc2nccn2cc1-c1nc(NCC(c2ccccc2)c2ccccc2)c2ccccc2n1 [compound 200, N-(2,2-Diphenylethyl)-2-(7-(Trifluoromethyl)Imidazo[1,2-a]Pyridin-6-yl)Quinazolin-4-Amine]	2.3 ± 0.3 nM	74 ± 2%	
c1ccc(C(CNc2nc(-c3cccc4cc[nH]c34)nc3ccccc23)c2ccccc2)cc1 [compound 33, N-(2,2-Diphenylethyl)-2-(1H-Indol-7-yl)Quinazolin-4-Amine]			melting point: 67 °C
c1ccc(C(CCNc2nc(-c3ccsc3)nc3ccccc23)c2ccccc2)cc1 [compound 5, N-(3,3-Diphenylpropyl)-2-(thiophen-3-yl)quinazolin-4-amine]	416 ± 22 nM	83 ± 1%	

Structure (SMILES)	IC50 [1, 2]	Emax [1, 3]	further results
O=C(N[C@H](CNc1nc(-c2ccc3nccn3c2)nc2ccccc12)c1ccccc1)c1ccccc1 [compound 150, (S)—N-(2-((2-(Imidazo[1,2-A]Pyridin-6-yl)Quinazolin-4-yl)Amino)-1-Phenylethyl)Benzamide]			melting point: 97 to 99 °C
Cc1cc2nccn2cc1-c1nc(NCC(c2ccc(F)cc2)c2ccc(F)cc2)c2ccccc2n1 [compound 203, N-(2,2-Bis(4-Fluorophenyl)Ethyl)-2-(7-Methylimidazo[1,2-a]Pyridin-6-yl)Quinazolin-4-Amine]	1.7 ± 0.2 nM	72 ± 1%	
CN(C)c1ccc(-c2nc(NCCc3ccccc3)c3ccccc3n2)cc1 [SRI-31335]			IC50 [1, 4]: 156 ± 12 nM; IC50 [1, 5]: 99 ± 63 nM; IC50 [1, 6]: 564 ± 1180 nM; efficacy of [^3H]DA (DAT) uptake inhibition, in words [1]: fully inhibits; also recorded: full-efficacy [^3H]DA uptake inhibitors; Emax ([1]; read-out: One-Site Emax (% I)): 100 ± 1.5%; Emax [1, 7]: 76 ± 54%; Emax [1, 8]: 27 ± 53%
c1ccc(C(Nc2nc(N3CCCCC3)nc3ccccc23)c2ccccc2)cc1 [compound 3, N-Benzhydryl-2-(piperidin-1-yl)quinazolin-4-amine]	150 nM	100%	
c1ccc(C(CNc2nc(-c3ccc4nccn4c3)nc3ccccc23)n2ccnc2)cc1 (centres unmarked) [compound 115, N-(2-(1H-Imidazol-1-yl)-2-Phenylethyl)-2-(Imidazo[1,2-A]Pyridin-6-yl)Quinazolin-4-Amine]	83 ± 27 nM	58 ± 3%	
c1ccc(C(CNc2nc(-c3cnc4nccn4c3)nc3ccccc23)N2CCOCC2)cc1 (centres unmarked) [compound 128, 2-(Imidazo[1,2-A]Pyrimidin-6-yl)-N-(2-Morpholino-2-Phenylethyl)Quinazolin-4-Amine]	55 ± 10 nM	69 ± 2%	
c1ccc(C(CNc2nc(-c3cccnc3)nc3ccccc23)c2ccccc2)cc1 [compound 2, N-(2,2-Diphenylethyl)-2-(pyridin-3-yl)quinazolin-4-amine]	480 nM	100%	
COCc1c[nH]c2ccc(-c3nc(NCC(c4ccccc4)c4ccccc4)c4ccccc4n3)cc12 [compound 116, N-(2,2-Diphenylethyl)-2-(3-(Methoxymethyl)-1H-Indol-5-yl)Quinazolin-4-Amine]	165 ± 15 nM	69 ± 1%	
c1ccc(C(CNc2nc(-c3cnc4nccn4c3)nc3ccccc23)c2cccnc2)cc1 (centres unmarked) [compound 134, 2-(Imidazo[1,2-A]Pyrimidin-6-yl)-N-(2-Phenyl-2-(Pyridin-3-yl)Ethyl)Quinazolin-4-Amine]	31 ± 7 nM	72 ± 3%	
c1ccc(C(CNc2nc(-c3ccc4c(c3)NCCC4)nc3ccccc23)c2ccccc2)cc1 [compound 83, N-(2,2-Diphenylethyl)-2-(1,2,3,4-Tetrahydroquinolin-7-yl)Quinazolin-4-Amine]	132 ± 43 nM	69 ± 4%	
c1ccc(C(CNc2nc(-c3cccn4ccnc34)nc3ccccc23)c2ccccc2)cc1 [compound 147, N-(2,2-Diphenylethyl)-2-(Imidazo[1,2-A]pyridin-8-yl)Quinazolin-4-Amine]	92 ± 21 nM	92 ± 4%	
c1ccc(C(CNc2nc(-c3ccc4nccn4c3)nc3ccccc23)c2ncccn2)cc1 (centres unmarked) [compound 103, 2-(Imidazo[1,2-A]Pyridin-6-yl)-N-(2-Phenyl-2-(Pyrimidin-2-yl)Ethyl)Quinazolin-4-Amine]	553 ± 82 nM	73 ± 2%	
c1ccc(C(CNc2nc(-c3ccc4nccn4c3)nc3ccccc23)c2ccncc2)cc1 (centres unmarked) [compound 106, 2-(Imidazo[1,2-A]Pyridin-6-yl)-N-(2-Phenyl-2-(Pyridin-4-yl)Ethyl)Quinazolin-4-Amine]	11 ± 2 nM	77 ± 2%	
c1ccc(C(CNc2nc(-c3cnc4nccn4c3)nc3ccccc23)N2CCCCC2)cc1 (centres unmarked) [compound 120, 2-(Imidazo[1,2-A]Pyrimidin-6-yl)-N-(2-Phenyl-2-(Piperidin-1-yl)Ethyl)Quinazolin-4-Amine]	89 ± 27 nM	81 ± 4%	
c1ccc2c(NCC(c3ccncc3)c3ccncc3)nc(-c3cnc4nccn4c3)nc2c1 [compound 176, N-(2,2-Di(Pyridin-4-yl)Ethyl)-2-(Imidazo[1,2-A]Pyrimidin-6-yl)Quinazolin-4-Amine]	299 ± 45 nM	70 ± 2%	
c1ccc(C(CNc2nc(N3CCCCC3)nc3ccccc23)c2ccccc2)cc1 [compound 4, N-(2,2-Diphenylethyl)-2-(piperidin-1-yl)quinazolin-4-amine]	60 nM	100%	
c1ccc(C(CCNc2nc(-c3cccnc3)nc3ccccc23)c2ccccc2)cc1 [compound 1, N-(3,3-Diphenylpropyl)-2-(pyridin-3-yl)quinazolin-4-amine]	443 ± 88 nM	82 ± 3%	
